Measurements reported in ChEMBL document CHEMBL5620384, “6-Regioisomeric 5,8-quinolinediones as potent CDC25 inhibitors against colorectal cancers” (Eur J Med Chem, 2023).

How the values were obtained:
Settings in all cases: read-out: Activity
DLD-1 = experiment: Cytotoxicity against human DLD-1 cells assessed as cell survival measured at 2 uM after 72 hrs by MTS assay relative to control; format: functional
MDA-MB-231 = experiment: Cytotoxicity against human MDA-MB-231 cells assessed as cell survival measured at 2 uM after 72 hrs by MTS assay relative to control; format: functional
MCF7 = experiment: Cytotoxicity against human MCF7 cells assessed as cell survival measured at 2 uM after 72 hrs by MTS assay relative to control; format: functional
HCT-116 = experiment: Cytotoxicity against human HCT-116 cells assessed as cell survival measured at 2 uM after 72 hrs by MTS assay relative to control; format: functional
U-87 MG = experiment: Cytotoxicity against human U-87 MG cells assessed as cell survival measured at 2 uM after 72 hrs by MTS assay relative to control; format: functional, U-87MG ATCC
SW480 = experiment: Cytotoxicity against human SW480 cells assessed as cell survival measured at 2 uM after 72 hrs by MTS assay relative to control; format: functional

Q: For `Nc1ccc2c(c1)C(=O)C(Cl)=C(NCCN1CCOCC1)C2=O`, which viability at 2 µM (DLD-1) is on record?
A: 90.8%

Q: What about the viability at 2 µM (MDA-MB-231) of the same compound?
A: 99.7%

Q: And the viability at 2 µM (MCF7)?
A: 81.4%

Q: What about the viability at 2 µM (HCT-116) of the same compound?
A: 88.7%

Q: What about the viability at 2 µM (U-87 MG) of the same compound?
A: 104%

Q: `O=C1C(NCCN2CCOCC2)=C(Cl)C(=O)c2c1cccc2[N+](=O)[O-]` was tested. Which viability at 2 µM (DLD-1) did it give?
A: 59.9%

Q: And the viability at 2 µM (MDA-MB-231)?
A: 99.3%

Q: What about the viability at 2 µM (MCF7) of the same compound?
A: 88.9%

Q: And the viability at 2 µM (HCT-116)?
A: 86.3%

Q: What about the viability at 2 µM (U-87 MG) of the same compound?
A: 84.6%

Q: And the viability at 2 µM (SW480)?
A: 89.3%

Q: What does the source list for `O=C1C(Cl)=C(NCCN2CCOCC2)C(=O)c2cc([N+](=O)[O-])ccc21`?
A: viability at 2 µM (DLD-1): 54.9%; viability at 2 µM (MDA-MB-231): 66.8%; viability at 2 µM (MCF7): 90.5%; viability at 2 µM (HCT-116): 66%; viability at 2 µM (U-87 MG): 89.1%; viability at 2 µM (SW480): 76.8%

Q: Which results are given for `O=C1C(Cl)=C(NCCCCN2CCOCC2)C(=O)c2ncccc21`?
A: viability at 2 µM (DLD-1): 77.3%; viability at 2 µM (MDA-MB-231): 88.6%; viability at 2 µM (HCT-116): 53.9%; viability at 2 µM (U-87 MG): 81.5%

Q: How did the viability at 2 µM (DLD-1) turn out when `Nc1cccc2c1C(=O)C(Cl)=C(NCCN1CCOCC1)C2=O` was run?
A: 91.3%

Q: And the viability at 2 µM (MDA-MB-231)?
A: 98%

Q: And the viability at 2 µM (MCF7)?
A: 98.9%

Q: And the viability at 2 µM (HCT-116)?
A: 98%

Q: And the viability at 2 µM (U-87 MG)?
A: 95.9%

Q: What about the viability at 2 µM (SW480) of the same compound?
A: 96%

Q: Which viability at 2 µM (DLD-1) does the source give for `O=C1C(Cl)=C(NCCN2CCOCC2)C(=O)c2ccc(I)cc21` here?
A: 82.1%

Q: And the viability at 2 µM (MDA-MB-231)?
A: 91%

Q: And the viability at 2 µM (MCF7)?
A: 104%

Q: And the viability at 2 µM (HCT-116)?
A: 94.4%

Q: What about the viability at 2 µM (U-87 MG) of the same compound?
A: 104%

Q: And the viability at 2 µM (SW480)?
A: 111%

Q: With `O=C1C(Cl)=C(NCCCN2CCOCC2)C(=O)c2ncccc21` as the compound, how does the viability at 2 µM (DLD-1) read?
A: 67.7%

Q: What about the viability at 2 µM (MDA-MB-231) of the same compound?
A: 87.8%

Q: And the viability at 2 µM (MCF7)?
A: 95.1%

Q: And the viability at 2 µM (HCT-116)?
A: 56.3%

Q: And the viability at 2 µM (U-87 MG)?
A: 76.8%

Q: And the viability at 2 µM (SW480)?
A: 105%

Q: `O=C1C(Cl)=C(NCCN2CCOCC2)C(=O)c2ccccc21` was tested. Which viability at 2 µM (DLD-1) did it give?
A: 97.6%

Q: What about the viability at 2 µM (MDA-MB-231) of the same compound?
A: 89.8%

Q: And the viability at 2 µM (MCF7)?
A: 103%

Q: What about the viability at 2 µM (HCT-116) of the same compound?
A: 90.1%

Q: And the viability at 2 µM (U-87 MG)?
A: 99%

Q: What about the viability at 2 µM (SW480) of the same compound?
A: 100%

Q: For `O=C1C(Cl)=C(NCCN2CCOCC2)C(=O)c2cc(Cl)ccc21`, which viability at 2 µM (DLD-1) is on record?
A: 39.3%

Q: What about the viability at 2 µM (MDA-MB-231) of the same compound?
A: 91.3%

Q: What about the viability at 2 µM (MCF7) of the same compound?
A: 94%

Q: What about the viability at 2 µM (HCT-116) of the same compound?
A: 86.5%

Q: What about the viability at 2 µM (U-87 MG) of the same compound?
A: 98.2%

Q: And the viability at 2 µM (SW480)?
A: 105%

Q: What does the source list for `O=C1C(Cl)=C(NCCN2CCOCC2)C(=O)c2ccc([N+](=O)[O-])cc21`?
A: viability at 2 µM (DLD-1): 97.8%; viability at 2 µM (MDA-MB-231): 92.9%; viability at 2 µM (MCF7): 106%; viability at 2 µM (HCT-116): 99.7%; viability at 2 µM (U-87 MG): 106%; viability at 2 µM (SW480): 94.2%

Q: What does the source list for `O=C1C(Cl)=C(NCCN2CCOCC2)C(=O)c2c1cccc2[N+](=O)[O-]`?
A: viability at 2 µM (DLD-1): 93.2%; viability at 2 µM (MDA-MB-231): 98.2%; viability at 2 µM (MCF7): 109%; viability at 2 µM (HCT-116): 100%; viability at 2 µM (U-87 MG): 105%; viability at 2 µM (SW480): 97.8%
